The subject of one experiment is HeLa cells. In words: Fluorescence imaging of intracellular Zn^2+ (CLSM). Type of experiment: cell-based. The settings on record: λex 543 nm, emission 560-660 nm. As to the method: Confocal fluorescence imaging is performed with an OLYMPUS IX81 laser scanning microscope and a 60 ×oil-immersion objective lens. The microscope is equipped with multiple visible laser lines (405, 488, 543 nm). Images are collected and processed with Olympus FV10-ASW software.
The HeLa cell line is provided by Biochemistry and Cell Biology (China). Cells are grown in DMEM (Dulbecco's modified Eagle's medium) supplemented with 10% FBS (Fetal Bovine serum) and 5% CO2 at 37° C.
HeLa cells ([…]) are plated on […] glass cover slips and allowed to adhere for 24 hours. 10 μM of Compound R3 in the culture media containing 0.2% (v/v) DMSO is added to the cells. The cells are incubated at 37° C. for 30 min, and washed with PBS three times to remove the excess R3 probe and bathed in PBS (2 mL) before imaging. After washing with PBS (2 mL×3) to remove the excess probe, the cells are treated with 50 μM Zinc lactate for 30 min. Excitation of Compound R3 loaded cells at 543 nm is carried out with a semiconductor laser, and emission is collected at 560-660 nm (single channel).

Experiment [1] in a line: Metal ion sensing (fluorescence response of Compound R3 to other metal ions). Conditions: excitation 560 nm. As to the method: (§1) The procedure for metal ion sensing is described. Solutions of the metal ions (10.0 mM) are prepared in deionized water. […] For titration experiments, a 2.0 mL solution of Compound R3 (20 μM) is filled in a quartz optical cell of 1 cm optical path length. Zn^2+ stock solution is added into the quartz optical cell gradually by micro-pipette. Spectral data is recorded at 5 min after addition. In selectivity experiments, test samples are prepared by placing appropriate amounts of metal ion stock into 2.0 mL solution of R3 (20 μM). For fluorescence measurements, excitation is provided at 560 nm, while emission is collected from 565 nm to 700 nm.

Experiment [2] is described as follows: Metal ion sensing (fluorescence response of Compound R3 to Zn^2+). How it is done:
The procedure for metal ion sensing is described. Solutions of the metal ions (10.0 mM) are prepared in deionized water. A stock solutions of Compound R3 (0.2 mM) is prepared in ethanol and then diluted to 20 μM with ethanol-water (1: 1, v/v, pH 7.04) for spectral measurement. For titration experiments, a 2.0 mL solution of Compound R3 (20 μM) is filled in a quartz optical cell of 1 cm optical path length. Zn^2+ stock solution is added into the quartz optical cell gradually by micro-pipette. Spectral data is recorded at 5 min after addition. In selectivity experiments, test samples are prepared by placing appropriate amounts of metal ion stock into 2.0 mL solution of R3 (20 μM). For fluorescence measurements, excitation is provided at 560 nm, while emission is collected from 565 nm to 700 nm.

Experiment [3] in a line: Metal ion sensing (fluorescence response of Compound R3 to Ca^2+). Conditions: Compound R3 2.0 × 10^−5M + Ca^2+ 20.0 × 10^−5M, ethanol-PBS (1:1, v/v, pH 8.04), excitation 560 nm. As to the method:
as §1

A short description of experiment [4]: Assessing Zn chelation effectiveness (R3 fluorescence with various zinc compounds). How it is done:
Another application of the composition of the present invention is assessing the effectiveness of a zinc chelator or a zinc chelating system. One aspect of the invention provides a method of assessing the Zn^2+ chelating effectiveness of Zn^2+ chelator or a Zn^2+ chelating system comprising the steps: (a) incubating the Zn^2+ chelator or a Zn^2+ chelating system with a compound of the present invention; (b) shining excitation light to the incubated Zn^2+ chelator or a Zn^2+ chelating system; and (c) detecting light emission from the compound from 560 nm to 660 nm.
There are at least three variables that may affect zinc chelation. Firstly, the inherent characteristic of any particularly zinc chelator compound. Such compounds include lactate, sulfate, nitrate, chloride, citrate, anions, and the like. Mechanism of actions may include ionic interaction (as in a salt) or covalent binding. Another variable is the concentration of one or more zinc chelators in a zinc chelating system. Generally, the more of a zinc chelator the more zinc chelation is observed. […]
Table 2 is the fluorescent relative intensity of inventive Compound R3 (5.0×10^−5 M) upon the addition of various zinc compounds. Each sample contains the same level of zinc ion (5.0×10^−4 M) in H2O/DMSO (1000:1, V/V) solution, with fluorescence assessed at an excitation of 560 nm.

Experiment [5] can be described thus: Metal ion sensing (fluorescence response of Compound R3 to Hg^2+). The settings on record: excitation 560 nm. As to the method: as §1
The subject of experiment [6] is Streptococcus mutans (ATCC® 700610™). In words: Fluorescence imaging of Zn^2+ in bacteria (CLSM). The settings on record: λex 543 nm. In kind it is cell-based. How it is done: The Streptococcus mutans is prepared by inoculating the single colony from the BHI agar plate into 5 mL BHI broth and incubating at 37° C. for 48 hours. The Streptococcus mutans are separately stained with 10 μM of Compound R3 at 37° C. for 60 min.
FIG. 2a 2f are CLSM images of Streptococcus mutans (ATCC® 700610™) cells. FIGS. 2a, 2b, and 2c are said cells incubated with 10 μM of inventive Compound R3 for 60 min to assess base level background fluorescence noise. FIGS. 2d, 2e, and 2f are cells from the same sample pool subsequently incubated with 50 μM Zn^2+ for 60 min. And then red channel emission is collected at 560-660 nm for FIGS. 2b and 2e (λex=543 nm), while FIGS. 2a and 2d are bright-field images. FIG. 2c is an overlay of FIG. 2a and FIG. 2b, while FIG. 2f is an overlap of FIG. 2d and FIG. 2e.

As for `CCN(CC)c1ccc2c(c1)Oc1cc(N(CC)CC)ccc1C21c2ccccc2C(=O)N1CCNCc1ccc[nH]1` [Compound R3, 2-(2-(((1H-pyrrol-2-yl)methyl)amino)ethyl)-3′,6′-bis(diethylamino)spiro[isoindoline-1,9′-xanthen]-3-one], the “Intracellular fluorescence in HeLa cells after Zn^2+” value in the experiment with HeLa cells (10 μM Compound R3 30 min at 37° C., then 50 μM Zn^2+ 30 min) was “significant fluorescence increase”. Moreover, the “Fluorescence emission in HeLa cells without Zn^2+” value in the experiment on HeLa cells (10 μM Compound R3, 30 min, 37° C., no Zn^2+ (FIG. 1b)) was “no fluorescence emission”. In addition, the “Fluorescence intensity in presence of other transition and heavy metal ions (selectivity)” value in experiment [1] (Compound R3 20 μM, ethanol-water (1:1, v/v, pH 7.04), K^+, Ag^+, Ca^2+, Mg^2+, Pb^2+, Ni^2+, Mn^2+, Co^2+, Cd^2+, Cu^2+, Fe^2+, Cr^3+, Li^+, Ba^2+, Fe^3+, Na^+) was “minimal fluorescence intensity”. Moreover, the “Peak Fluorescence Intensity (a.u.) at 570-580 nm” value in experiment [1] (Compound R3 2.0 × 10^−5M + other metal ions (K^+, Ag^+, Ca^2+, Mg^2+, Pb^2+, Ni^2+, Mn^2+, Co^2+, Cd^2+, Cu^2+, Fe^2+, Cr^3+, Li^+, Ba^2+, Fe^3+, Na^+) 20.0 × 10^−5M, ethanol-PBS (1:1, v/v, pH 8.04)) is listed as less than 0.1 a.u; in experiment [2] (Compound R3 2.0 × 10^−5M + Zn^2+ 20.0 × 10^−5M, ethanol-PBS (1:1, v/v, pH 8.04), excitation 560 nm), 0.7 a.u; in experiment [3] it was 0.25 a.u; in experiment [4] (Compound R3 5.0×10^−5 M only (control, no zinc), H2O/DMSO (1000:1, V/V), excitation 560 nm) it was 0.1 a.u; in experiment [5] (Compound R3 2.0 × 10^−5M + Hg^2+ 20.0 × 10^−5M, ethanol-PBS (1:1, v/v, pH 8.04)), 1.0 a.u. Further, the “Fluorescence of the solution without metal ion” value in experiment [2] (Compound R3 20 μM in control ethanol-water (1:1, v/v, pH 7.04), no Zn^2+) was “non fluorescent”. Also, the “Fluorescence at 580 nm on addition of Zn^2+” value in experiment [2] (Compound R3 20 μM, ethanol-water (1:1, v/v, pH 7.04), Zn^2+ 0-12 eq, excitation 560 nm) was “turned on and grew drastically”. The “Fluorescence intensity in presence of Zn^2+ (selectivity)” value in experiment [2] (Compound R3 20 μM, ethanol-water (1:1, v/v, pH 7.04), excitation 560 nm) is on record as “greatest fluorescence intensity”. Also, in experiment [5] (Compound R3 20 μM, ethanol-water (1:1, v/v, pH 7.04)), the “Fluorescence intensity in presence of Hg^2+ (selectivity)” value was “greatest fluorescence intensity”. Moreover, in experiment [6] (10 μM Compound R3 60 min at 37° C., then 50 μM Zn^2+ 60 min, emission 560-660 nm (FIG. 2e)), the “Fluorescence in Streptococcus mutans after Zn^2+” value was “significant fluorescence increase”. Besides, the “Fluorescence emission in Streptococcus mutans without Zn^2+” value in experiment [6] (10 μM Compound R3, 60 min, 37° C., emission 560-660 nm, no Zn^2+ (FIG. 2b)) is on record as “no fluorescence emission”.
As to `CC(O)C(=O)[O-].CC(O)C(=O)[O-].[Zn+2]` (stereo not drawn) [zinc lactate, reference compound], the “Relative degree of zinc chelation effectiveness” value in experiment [4] (among the zinc chelators tested (lactate, sulfate, citrate), from Table 2) is listed as “weakest relative degree of zinc chelation effectiveness”.

These data come from patent US20160077077A1, “Zinc Fluorescent Probe” (The Procter & Gamble Company, priority 2014, published 2016).
